Data from patent US11702629B2, “Acceleration of stem cell differentiation” (Regents of the University of Minnesota, priority 2017, dated 2023).
“Also recorded” adds a separate entry of the source.

Columns and labels:
[1] = test system: human pluripotent stem cells; assay: Accelerated neural induction of hPSCs/hiPSCs into neuroepithelium, 24 hours (NANOG/SOX2/SOX1/PAX6 immunostaining); format: cell-based; conditions: for Effect on NE formation of inhibitors of FGF signaling cascade components: standard neuralizing conditions
Method: Prior to passaging, a recombinant human vitronectin stock solution (500 ug/mL, Peprotech AF-140-09, Rocky Hill, N.J., USA) was diluted 1:100 in DPBS+/+ (ThermoFisher Scientific cat #14040-133, Waltham, Mass., USA) and used to coat 9.6 cm^2 tissue-culture treated wells (Fischer Scientific, Hampton, N.H.) for one hour at room temperature. hPSCs were washed once with 1 mL hypertonic citrate buffer (11) or equivalent and then incubated with 1 mL hypertonic citrate buffer (11) at 37° C. for 6 minutes until colony detachment occurred. The colonies were collected and processed into 25-50 cell fragments by trituration and the dissociation quenched with 5 mL Essential 6 Medium (ThermoFisher Scientific A1516401, Waltham, Mass., USA). Suspensions were collected into 15 mL conical tubes and centrifuged for 1 minute at 200×G. Supernatants were aspirated and pellets resuspended into 1.2 mL Essential 6 Medium (ThermoFisher Scientific A2858501, Waltham, Mass., USA) assuming a 1:6 split ratio. 0.2 mL cultures were seeded onto rhVTN-coated wells containing Essential 8 Medium. Cultures were maintained in Essential 8 Medium with daily media changes and passaged every 3 days.
(§1) Differentiation medium consisting of Essential 6 supplemented with LDN-193189 HCl (500 nM, Selleckchem cat #S7507, Houston, Tex. USA) and BGJ398 (100 nM Selleckchem cat #S2183 Houston, Tex. USA) was combined and distributed 2 mL per vitronectin-coated well of a 6-well plate. hPSCs were dissociated into small clumps (25-50 cells per clump) as indicated above. 0.2 to 0.4 mL cultures were seeded onto rhVTN-coated wells containing differentiation medium.
Conditions were assayed in which the ERK pathway was inhibited at both receptor and downstream intracellular effector levels. The VEGFR2/FGFR2 inhibitor SU5402 was compounded with previously known neurulation conditions containing the ALK2/3 receptor antagonist LDN 193189 and the ALK 4/5/7 receptor antagonist A8-30-1 to observe their combined effect on undifferentiated pluripotent stem cells.
24-hour differentiating cultures were analyzed prior to cell death for various transcription factors associated with pluripotency and NE formation. […] SOX2, common to both hPSCs and NE, was maintained.

[2] = test system: day-2 neuromesoderm; assay: Conversion of day-2 neuromesoderm into spinal neuroepithelium; format: cell-based, human; conditions: day 3
Method: Day-one Neuromesoderm progenitors were exposed to differentiation medium consisting of Essential 6 supplemented with CHIR 99021 (3 uM, Tocris cat #4423, Bristol UK) and FGF-Basic TS™ (20 ng/mL, Humanzyme cat #HZ-1286, Chicago, Ill. USA) for 24 hours. This day-two neuromesoderm was further exposed to differentiation medium consisting of Essential 6 supplemented with BGJ398 (100 nM Selleckchem cat #52183 Houston, Tex. USA) to create a day-three population of PAX3/SOX1/HOXB4-positive neuroepithelial cells.
It has been shown that retinoic acid signaling is needed to convert neuromesoderm into spinal cord neuroepithelium. […] It has been shown that retinoids exert multiple simultaneous functions in the developing spinal cord, inhibiting FGF signaling, while activating both WNT and SHH signaling. […] This spinal neuroepithelium was further characterized with respect to additional markers and discovered that it was partially PAX3-positive, an early spinal neural plate marker. The day-3 conditions were optimized to maximize PAX3 and it was discovered that moderate WNT signaling was needed in addition to FGF inhibition to derive a pure population of cervical neural plate epithelium homogeneously expression PAX3 (FIG. 18). To investigate the dorso-ventral patterning competency of these retinoid-independent spinal neuroepithelial cells, the day-3 cultures were exposed to SHH signaling. […]

[3] = test system: human pluripotent stem cells; assay: Accelerated production of neuromesoderm progenitors directly from hPSCs, 24 hours (SOX2/T immunophenotype); format: cell-based
Method: as §1, with “Houston, Tex. USA), BGJ398 (100” for “Houston, Tex. USA) and BGJ398 (100”, “#S2183 Houston, and TX USA), and CHIR 99021 (3 uM, Tocris cat #4423, Bristol UK) was combined” for “#S2183 Houston, Tex. USA) was combined”
The previous scenario utilized a neuroectoderm intermediate for the generation of neuromesoderm. Because it has been shown that neuromesoderm can be derived directly from hPSCs, high levels of WNT signaling were incorporated into the day-1 neuroectoderm conditions to investigate whether this could induce neuromesoderm directly.

[4] = test system: day-1 neuroectoderm; assay: Caudalization of day-1 neuroectoderm into neuromesoderm; format: cell-based, human; conditions: by day 2
Method: Controversy currently exists surrounding the origin of the most caudal segments of the central nervous system that include the spinal cord. In vitro conditions for generating spinal cord tissue have traditionally relied upon the formation of anterior neural plate expressing SOX1+/FOXG1+/OTX2+/PAX5−/HOXB4− that is caudalized with factors such as FGF, WNT, and retinoic acid to create SOX1+/FOXG1−/OTX2−/PAX5−/HOXB4+ positive cervical spinal cord tissue. […] An additional 24 hours of WNT/FGF signaling converted this population into SOX1−/SOX2+/T+/TBX6−/HOXB4+ cervical-level neuromesoderm (FIG. 13).

[5] = 24-hour cultures, SU5402 with LDN 193189 and A8-30-1

With `CCN1CCN(c2ccc(Nc3cc(N(C)C(=O)Nc4c(Cl)c(OC)cc(OC)c4Cl)ncn3)cc2)CC1` [BGJ398, 3-(2,6-dichloro-3,5-dimethoxyphenyl)-1-(6-(4-(4-ethylpiperazin-1-yl)-phenylamino)pyrimidin-4-yl)-1-methylurea] the “Induction of SOX1-immunoreactivity when substituted for SU5402 in the inhibitor cocktail” value ([1]; 24 hours, panel of hPSC lines) was “matches or exceeds marker expression levels seen when using SU5402” and the “Population created from day-2 neuromesoderm” value [2] was “created a pure population of spinal neuroepithelium lacking evidence of neuromesoderm or somite tissues”.

With `Cc1c[nH]c(-c2cnc(NCCNc3ccc(C#N)cn3)nc2-c2ccc(Cl)cc2Cl)n1` [CHIR99021] the “HOXB4 expression of day-2 cultures” value ([3]; additional 24 hours incubation after day-1 neuromesoderm induction) was “upregulated the HOXB4 transcription factor” and the “Population induced from day-1 neuroectoderm by high WNT signaling” value [4] was “sufficient to induce a SOX1−/SOX2+/T+/TBX6−/HOXB4− population by day 2”.

With `O=C(NOC[C@H](O)CO)c1ccc(F)c(F)c1Nc1ccc(I)cc1F` [PD0325901, N-[(2R)-2,3-Dihydroxypropoxy]-3,4-difluoro-2-[(2-fluoro-4-iodophenyl)amino]-benzamide] the “Effect on NE formation of inhibitors of FGF signaling cascade components” value [1] was “performed similarly to BGJ398; also recorded: substitutes for SU5402”, the “Replacement of BGJ398 in neural induction” value ([1]; with LDN 193189) was “fully replaces use of BGJ398” and the “Replacement of BGJ398 in neuromesoderm formation” value ([3]; with LDN193189 and CHIR99021) was “fully replaces use of BGJ398”.

With `COc1nccc(-c2c(-c3ccc(F)cc3)ncn2C2CCC(O)CC2)n1` (stereo not drawn) [SB239063] the “Effect on NE formation of inhibitors of FGF signaling cascade components” value [1] was “had no effect”.

For `Cc1c[nH]c(C=C2C(=O)Nc3ccccc32)c1CCC(=O)O` [SU5402, 3-[4-Methyl-2-(2-oxo-1,2-dihydro-indol-3-ylidenemethyl)-1H-pyrrol-3-yl]-propionic acid], the “SOX1-positivity (cells)” value ([1]; 24-hour cultures, SU5402 compounded with LDN 193189 and A8-30-1) was “greater than 90%”, the “NANOG positivity compared to undifferentiated control cultures” value [1, 5] was “reduced NANOG positivity” and the SOX2 expression [1, 5] was “maintained”. The “Outcome of continued culture” value ([1]; additional 48 hours, SU5402 with LDN 193189 and A8-30-1, data not shown) was “resulted in cell death”.
